Patent US20230031406A1, “COMPOUNDS AND COMPOSITIONS FOR TREATING CONDITIONS ASSOCIATED WITH NLRP ACTIVITY” (Novartis AG, priority 2018, published 2023)
pIC50: −log10 of the molar value. Read-outs that look alike come from different tables or passages of the source. One block for each compound: values may come before it.

Tested on: PMA-differentiated THP-1 cells
Assay: IL-1β production in PMA-differentiated THP-1 cells stimulated with gramicidin (hTHP-1 assay containing 2% fetal bovine serum; Procedures 1 and 2)
Format: cell-based, human
Details: 2% fetal bovine serum
In short: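 Compound titrations in 0.37% final DMSO were added to THP-1 cells that had been plated after 16-18 h PMA treatment, 50,000 per well in 2% FBS. One hour later the cells received gramicidin (5 μM, 2 h) and were centrifuged. HTRF detected IL-1β in the collected supernatants.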

[1] = Table B2, class symbols, read-out: hTHP-1 IC50
[2] = Homo sapiens, THP-1, Table B2, class symbols, read-out: hTHP-1 IC50
[3] = Homo sapiens, THP-1, Table B3, hTHP-1 assay, class symbols, read-out: IC50
[4] = Homo sapiens, THP-1, Table B2, numeric bounds, read-out: hTHP-1 IC50
[5] = Table B1, class symbols, read-out: Average IC50 of compounds in hTHP-1 assay: hTHP-1 IC50
[6] = Homo sapiens, THP-1, Table B1, class symbols, read-out: Average IC50 of compounds in hTHP-1 assay: hTHP-1 IC50

pIC50 [1]: 5.30 to 6.00
SMILES: CCc1c(C(F)(F)F)nc2c(c1NC(=O)N=S(N)(=O)c1cc(C(C)(C)O)cs1)CCC2 (single isomer, unassigned) [Compound 698a, (S) or (R)-N′-((3-ethyl-2-(trifluoromethyl)-6,7-dihydro-5H-cyclopenta[b]pyridin-4-yl)carbamoyl)-4-(2-hydroxypropan-2-yl)thiophene-2-sulfonimidamide]

pIC50 [2]: 5.30 to 6.00
SMILES: CC1(C)CCc2c1nc1c(c2NC(=O)N=S(N)(=O)c2cnn3c2OCCC3)CCC1 (single isomer, unassigned) [Compound 304b, (R) or (S)-N′-((3,3-dimethyl-1,2,3,5,6,7-hexahydrodicyclopenta [b,e]pyridin-8-yl)carbamoyl)-6,7-dihydro-5H-pyrazolo[5,1-b][1,3]oxazine-3-sulfonimidamide]

pIC50 [1]: 6.00 to 6.70
SMILES: Cc1c(C(F)(F)F)nc2c(c1NC(=O)N=S(N)(=O)c1cnc(C(C)(C)O)s1)CCC2C (single isomer, unassigned) [Compound 608c]

pIC50 (Table B4, class symbols, read-out: hTHP-1 IC50): 4.52 to 5.30
SMILES: CCc1c(C(F)(F)F)nc2c(c1NC(=O)N=S(N)(=O)c1nn(CC)cc1F)CCC2 (single isomer, unassigned) [Example 772, (S) or (R)-1-ethyl-N′-((3-ethyl-2-(trifluoromethyl)-6,7-dihydro-5H-cyclopenta[b]pyridin-4-yl)carbamoyl)-4-fluoro-1H-pyrazole-3-sulfonimidamide]

pIC50 [3]: 6.70 to 7.40
SMILES: C[C@H](O)c1csc([S@](N)(=O)=NC(=O)Nc2c3c(nc4c2CC[C@H]4C)CCC3)c1 (single isomer, unassigned) [Example 664, (R)-4-((S) or (R)-1-hydroxyethyl)-N′-(((R)-3-methyl-1,2,3,5,6,7-hexahydrodicyclopenta[b,e]pyridin-8-yl)carbamoyl) thiophene-2-sulfonimidamide]

pIC50 [1]: 6.00 to 6.70
SMILES: CC1(C)CCc2c1nc1c(c2NC(=O)N=S(N)(=O)c2ccn(-c3ccccc3)n2)CCC1 (single isomer, unassigned) [Compound 659b, (R) or (S)-N′-((3,3-dimethyl-1,2,3,5,6,7-hexahydrodicyclopenta [b,e]pyridin-8-yl)carbamoyl)-1-phenyl-1H-pyrazole-3-sulfonimidamide]

pIC50 [3]: 5.30 to 6.00
SMILES: C[C@@H]1CCc2c1nc1c(c2NC(=O)N=[S@](N)(=O)c2cc([C@@H](C)O)cs2)CCC1 (single isomer, unassigned) [Example 661, (S)-4-((R) or (S)-1-hydroxyethyl)-N′-(((R)-3-methyl-1,2,3,5,6,7-hexahydrodicyclopenta[b,e]pyridin-8-yl)carbamoyl) thiophene-2-sulfonimidamide]

pIC50 [3]: 5.30 to 6.00
SMILES: CCn1cc(F)c(S(N)(=O)=NC(=O)Nc2c(C)c(CC(F)(F)F)nc3c2CCC3)n1 (single isomer, unassigned) [Example 717, (R) or (S)-1-ethyl-4-fluoro-N′-((3-methyl-2-(2,2,2-trifluoroethyl)-6,7-dihydro-5H-cyclopenta[b]pyridin-4-yl)carbamoyl)-1H-pyrazole-3-sulfonimidamide]

pIC50 [4]: < 4.52
SMILES: C[C@@H]1CCc2c1nc1c(c2NC(=O)N=S(N)(=O)c2ccn(-c3ccccc3)n2)CCC1 (single isomer, unassigned) [Compound 700a, (S) or (R)-N′-(((R)-3-methyl-1,2,3,5,6,7-hexahydrodicyclopenta [b,e]pyridin-8-yl)carbamoyl)-1-phenyl-1H-pyrazole-3-sulfonimidamide]

pIC50 [2]: 5.30 to 6.00
SMILES: Cc1c(C2CC2)nc(C2CC2)c(C)c1NC(=O)N=S(N)(=O)c1cc(C(C)(C)O)cs1 (single isomer, unassigned) [Compound 612b, (R) or (S)-N′-((2,6-dicyclopropyl-3,5-dimethylpyridin-4-yl)carbamoyl)-4-(2-hydroxypropan-2-yl)thiophene-2-sulfonimidamide]

pIC50 [5]: 6.00 to 6.70
SMILES: Cc1sc(S(N)(=O)=NC(=O)Nc2c3c(nc4c2CCC4C)CCC3)nc1C(C)(C)O (single isomer, unassigned) [Compound 104a, (R,R/S) or (S,R/S)-4-(2-hydroxypropan-2-yl)-5-methyl-N′-((3-methyl-1,2,3,5,6,7-hexahydrodicyclo-penta[b,e]pyridin-8-yl)carba-moyl)thiazole-2-sulfonimidamide]

pIC50 [2]: 6.70 to 7.40
SMILES: CC(C)(O)c1sc(S(N)(=O)=NC(=O)Nc2c3c(nc4c2CCC4(C)C)CCC3)nc1CO (stereo not shown) [Compound 642, N′-((3,3-dimethyl-1,2,3,5,6,7-hexahydrodicyclopenta[b,e]pyridin-8-yl)carbamoyl)-4-(hydroxymethyl)-5-(2-hydroxypropan-2-yl)thiazole-2-sulfonimidamide]

pIC50 [6]: 4.52 to 5.30
SMILES: Cc1nc(C(C)(C)O)ccc1S(N)(=O)=NC(=O)Nc1c2c(nc3c1CCC3)CCC2 (single isomer, unassigned) [Compound 157b, (R) or (S)-N′-((1,2,3,5,6,7-hexahydrodicyclo-penta[b,e]pyridin-8-yl)carbamoyl)-6-(2-hydroxypropan-2-yl)-2-methylpyridine-3-sulfonimidamide]

pIC50 [2]: 5.30 to 6.00
SMILES: CC(C)n1cc(CO)c(S(N)(=O)=NC(=O)Nc2c3c(nc4c2CCC4(C)C)CCC3)n1 (stereo not shown) [Compound 682, N′-((3,3-dimethyl-1,2,3,5,6,7-hexahydrodicyclopenta [b,e]pyridin-8-yl)carbamoyl)-4-(hydroxymethyl)-1-isopropyl-1H-pyrazole-3-sulfonimidamide]

pIC50 (Table B2, numeric bounds, read-out: hTHP-1 IC50): < 4.52
SMILES: CCC1CCc2c1nc1c(c2NC(=O)N=S(N)(=O)c2ccn(C(F)F)n2)CCC1 (single isomer, unassigned) [Compound 668d, (S, R) or (S, S) or (R, S) or (R, R)-1-(Difluoromethyl)-N′-((3-ethyl-1,2,3,5,6,7-hexahydrodicyclopenta [b,e]pyridin-8-yl)carbamoyl)-1H-pyrazole-3-sulfonimidamide]

pIC50 [5]: 6.00 to 6.70
SMILES: CC1CCc2c1nc1c(c2NC(=O)N=S(N)(=O)c2sc(C(C)(C)O)nc2CO)CCC1 (single isomer, unassigned) [Compound 168b, (R,R/S) or (S,R/S)-4-(hydroxymethyl)-2-(2-hydroxypropan-2-yl)-N′-((3-methyl-1,2,3,5,6,7-hexa-hydrodicyclopenta[b,e]py-ridin-8-yl)carbamoyl)thia-zole-5-sulfonimidamide]

pIC50 [1]: 4.52 to 5.30
SMILES: Cc1nc2c(c(NC(=O)N=S(N)(=O)c3cc(C(C)(C)O)cs3)c1C(C)C)CCC2 (single isomer, unassigned) [Compound 622a, (S) or (R)-4-(2-Hydroxypropan-2-yl)-N′-((3-isopropyl-2-methyl-6,7-dihydro-5H-cyclopenta[b]pyridin-4-yl)carbamoyl) thiophene-2-sulfonimidamide]

pIC50 [3]: 6.70 to 7.40
SMILES: C[C@@H]1CCc2c1nc1c(c2NC(=O)N=S(N)(=O)c2nn(C(F)F)cc2F)CCC1 (stereo partly drawn) [Example 568, 1-(Difluoromethyl)-4-fluoro-N′-(((R)-3-methyl-1,2,3,5,6,7-hexahydrodicyclopenta[b,e]pyridin-8-yl)carbamoyl)-1H-pyrazole-3-sulfonimidamide]

pIC50 [4]: < 4.52
SMILES: CC(C)(O)c1cc(S(N)(=O)=NC(=O)Nc2c3c(nc4c2CCC4(C)C)CCC3)nn1-c1ccccc1 (single isomer, unassigned) [Compound 663a, (S) or (R)-N′-((3,3-dimethyl-1,2,3,5,6,7-hexahydrodicyclopenta [b,e]pyridin-8-yl)carbamoyl)-5-(2-hydroxypropan-2-yl)-1-phenyl-1H-pyrazole-3-sulfonimidamide]

pIC50 [1]: 6.70 to 7.40
SMILES: CC(C)(O)c1sc(S(N)(=O)=NC(=O)Nc2c3c(nc4c2CCC4(C)C)CCC3)cc1F (single isomer, unassigned) [Compound 613a, (R) or (S)-N′-((3,3-dimethyl-1,2,3,5,6,7-hexahydrodicyclopenta [b,e]pyridin-8-yl)carbamoyl)-4-fluoro-5-(2-hydroxypropan-2-yl)thiophene-2-sulfonimidamide]

pIC50 [2]: 5.30 to 6.00
SMILES: CC(C)(O)c1ncc(S(N)(=O)=NC(=O)Nc2c3c(nc4c2CCC4CF)CCC3)s1 (stereo not shown) [Compound 702, N′-((3-(fluoromethyl)-1,2,3,5,6,7-hexahydrodicyclopenta[b,e]pyridin-8-yl)carbamoyl)-2-(2-hydroxypropan-2-yl)thiazole-5-sulfonimidamide]

pIC50 [2]: 6.70 to 7.40
SMILES: CCc1nc2c(c(NC(=O)N=S(N)(=O)c3sc(C(C)(C)O)cc3F)c1C1CC1)CCC2 (stereo not shown) [Compound 631, N′-((3-cyclopropyl-2-ethyl-6,7-dihydro-5H-cyclopenta[b]pyridin-4-yl)carbamoyl)-3-fluoro-5-(2-hydroxypropan-2-yl)thiophene-2-sulfonimidamide]

pIC50 (Table B3, hTHP-1 assay, class symbols, listed as Compound 984a, read-out: IC50): 4.52 to 5.30
SMILES: NS(=O)(=NC(=O)Nc1c2c(nc(C(F)(F)F)c1C1CC1)CCC2)c1nn(C(F)F)cc1F (stereo not shown) [Compound 984a]

pIC50 [6]: 5.30 to 6.00
SMILES: CC(C)c1nc(C(F)(F)F)nc(C(C)C)c1NC(=O)N=S(N)(=O)c1sc(C(C)(C)O)nc1CO (stereo not shown) [Compound 179, N′-((4,6-diisopropyl-2-(trifluoromethyl)pyrimidin-5-yl)carbamoyl)-4-(hydroxymethyl)-2-(2-hydroxypropan-2-yl)thiazole-5-sulfonimidamide]

pIC50 [5]: 4.52 to 5.30
SMILES: CC(C)(O)c1ncc(S(N)(=O)=NC(=O)Nc2c3c(nc4c2CCC4)CCCC3)s1 (single isomer, unassigned) [Compound 161a, (S) or (R)-N′-((2,3,5,6,7,8-hexahydro-1H-cyclopenta[b]quinolin-9-yl)carbamoyl)-2-(2-hydroxypropan-2-yl)thiazole-5-sulfonimidamide]
